Tests used:
[1] = molecular target: T1, CYP2B6 (human) (Homo sapiens, UniProt P20813); test: Metabolism by isolated human CYP2B6; type: in vitro ADME; settings: petasins 20 μM, 60 min
T1 construct: purchased BD Gentest (Switzerland); host or cells: baculovirus expression system
T1 sequence (P20813 1-491): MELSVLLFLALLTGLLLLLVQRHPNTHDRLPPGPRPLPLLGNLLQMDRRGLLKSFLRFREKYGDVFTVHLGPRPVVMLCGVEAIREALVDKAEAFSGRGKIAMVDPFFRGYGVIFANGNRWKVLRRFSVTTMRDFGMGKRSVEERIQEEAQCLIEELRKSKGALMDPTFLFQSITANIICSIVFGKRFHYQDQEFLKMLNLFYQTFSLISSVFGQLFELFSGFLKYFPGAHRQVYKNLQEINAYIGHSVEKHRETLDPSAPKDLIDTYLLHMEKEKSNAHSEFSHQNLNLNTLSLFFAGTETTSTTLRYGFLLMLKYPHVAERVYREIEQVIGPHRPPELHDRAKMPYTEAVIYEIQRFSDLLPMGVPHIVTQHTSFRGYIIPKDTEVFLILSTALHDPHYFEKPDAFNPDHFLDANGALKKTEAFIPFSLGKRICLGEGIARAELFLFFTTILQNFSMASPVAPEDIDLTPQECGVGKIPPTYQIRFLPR
Source text: (§1) The metabolism of petasin, isopetasin, and neopetasin was investigated using three different S9 fractions originating from three different species (isolated from rat, dog, and human liver homogenates containing cytochrome P450 isoforms) and isolated cytochromes of two different species (human and rat; rat analogues of the respective human cytochromes were used). For the expression of the different cytochromes, a baculovirus expression system was used according to supplier's manual. The S9 fractions or respectively single P450 cytochromes were used to mimic the liver metabolism by in vitro incubation.
(§2) The assay was carried out in triplicate in 1.5 ml glass vials with a final concentration of 20 μM of petasin, isopetasin, and neopetasin. The incubation was performed in a 37°C warm water bath. S9 fractions were thawed slowly on ice. Four different approaches were pursued by testing: (a) petasin, neopetasin, and isopetasin before (0 min) and after 60 min incubations with S9 fraction; (b) petasin, neopetasin, and isopetasin without S9 fraction after 60 min incubation; (c) vehicle as negative controls; and (d) cofactors of S9 fraction after 60‐min incubation.
(§3) A mixture of NADPH regeneration systems A (20‐fold) and B (100‐fold), phosphate buffer, and H2O was added, preincubated at 37°C, and shaken gently for 5 min. Afterwards, the recommended amount between 10 and 40 pmol/ml of enzyme or enzyme mixture was added according to manufacturer's instruction and incubated for further 60 min at 37°C and gently shaken. Afterwards, the reactions were stopped by addition of acetonitrile (400 μl). For the control sample, acetonitrile was added at 0 min incubation. The samples were centrifuged for 3 min at 10,000 × g. The supernatant was transferred to high‐performance liquid chromatography vials and analyzed by ultra‐performance liquid chromatography mass spectrometry (UPLC/MS). The UPLC analysis was performed with an UPLC Acquity H Class from Waters (Waters Corporation, Switzerland) including a quaternary high‐pressure gradient pump, an automatic sample injector, and a column thermostat. […]

[2] = molecular target: T2, CYP1A2 (human) (Homo sapiens, UniProt P05177); test: Metabolism by isolated human CYP1A2; type: in vitro ADME; settings: petasins 20 μM, 60 min
T2 construct: purchased BD Gentest (Switzerland); host or cells: baculovirus expression system
T2 sequence (P05177 1-516): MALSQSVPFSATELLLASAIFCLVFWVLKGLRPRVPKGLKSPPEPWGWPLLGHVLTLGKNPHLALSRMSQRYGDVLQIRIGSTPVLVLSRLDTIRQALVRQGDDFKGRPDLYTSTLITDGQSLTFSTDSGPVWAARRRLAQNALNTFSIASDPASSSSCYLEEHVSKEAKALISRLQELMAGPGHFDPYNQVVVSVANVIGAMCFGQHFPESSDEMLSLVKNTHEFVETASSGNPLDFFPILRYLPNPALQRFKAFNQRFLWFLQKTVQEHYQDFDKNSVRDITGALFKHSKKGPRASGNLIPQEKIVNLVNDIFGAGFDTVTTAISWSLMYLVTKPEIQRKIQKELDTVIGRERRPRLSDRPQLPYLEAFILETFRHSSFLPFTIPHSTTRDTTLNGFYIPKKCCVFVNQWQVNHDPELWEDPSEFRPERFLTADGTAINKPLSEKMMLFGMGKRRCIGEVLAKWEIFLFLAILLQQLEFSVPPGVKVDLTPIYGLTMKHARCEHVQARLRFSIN
Source text: as §1, §2, §3

[3] = tested on: HepaRG cells; test: WST-1 metabolic activity (cytotoxicity) in HepaRG cells; type: cell-based, human; settings: 250 μM, 4 hr
Experimental: HepG2 and H‐4‐II‐E cells were differentiated for 24 hr. HepaRG cells were directly seeded in precoated 96‐well microtiter plates and were incubated in William's medium with general purpose supplements according to manufacturer's manual until adherence. All cells were treated with Ze 339 (up to 100 μg/ml) or petasin, isopetasin, neopetasin, petasol, isopetasol, petasin mixture, fatty acid mixture, and reconstituted extracts (up to 250 μM) for 4 hr.
In the three cell lines, cytotoxicity was defined as a decrease in metabolic activity of ≥20% in the WST‐1 assay. At the end of the experiment, 10 μl WST‐1 reagent was added to each well. Plates were then incubated for 2 hr to allow for the reduction of WST‐1 reagent. Absorbance was measured using a microplate absorbance reader (Infinite M 200, Tecan Trading Ltd., Switzerland) at 450 nm, reference wavelength of 620 nm. Due to some matrix effect, the lowest concentration (0.02 μg/ml for Ze 339 and 3.9 μM for single constituents and mixtures) of each substance tested was defined as 100% metabolic activity. Results were expressed as percentage of the control metabolic activity, and data were presented as mean values ± SEM (n = 3–6).
Concentration‐response analysis was done using the sigmoidal Hill equation: E(t) = E0 − Emax × C(t)^N/(IC50 ^N + C(t)^N), where E is the effect at time t, E0 the effect at baseline (time = 0), IC50 the concentration yielding 50% of the maximal effect (Emax), and N denotes the sigmoidicity coefficient (Origin 2017 Software). For statistical analysis, analysis of variance with Dunnett's multicomparison test was used to correct for multiplicity of testing (IBM SPSS Statistics software, version 25, IBM Corp., USA). The level of significance was ^* p < .05, ^** p < .01 and ^*** p < .001; NS = no significance.

| extent of metabolism by CYP2B6 (human) [1] [%] | extent of metabolism by CYP1A2 (human) [2] [%] | Compound | metabolic activity [3] [%] |
| --- | --- | --- | --- |
| 13 | 21 | C/C=C(/C)C(=O)O[C@@H]1CCC2=CC(=O)C(=C(C)C)C[C@]2(C)[C@H]1C [isopetasin] | 73 |
| 20 | < 1 | C=C(C)[C@H]1C[C@@]2(C)C(=CC1=O)CC[C@@H](OC(=O)/C(C)=C\C)[C@@H]2C [neopetasin] | 28.9 |
| 50 | 4 | C=C(C)[C@@H]1C[C@@]2(C)C(=CC1=O)CC[C@@H](OC(=O)/C(C)=C\C)[C@@H]2C [petasin] | 37.7 |
